Assay [1] relates to HCT-116 colon carcinoma cells. Put plainly: Cell viability, LDH release assay, HCT-116. To be noted: Homo sapiens, HCT-116, 48 h. Background: Release of lactate dehydrogenase indicates damage to the cell membrane.
In assay [2] the test system is LoVo cells. Put plainly: Intracellular ROS level (human ROS ELISA kit), LoVo. The format is cell-based. To be noted: 30 µg/mL, 48 h. As for the experimental part:
To determine whether compound 3d induces oxidative stress, intracellular ROS levels were quantified after treatment (30 µg/mL, 48 h) using a human ROS ELISA kit.
A Human ROS ELISA Kit was used to measure the intracellular accumulation of ROS in the 3d-treated LoVo and HCT-116 cells. […]
(§1) medium served used as negative and positive controls, respectively. Percentages of viable cells […]
(§2) wells (final concentration of 100 μg/mL), compared to the negative control, and expressed as mean value (%) ± SD from two replicates. Graphing dose-response curves representing the compound […]
(§3) (HUVECs) at final concentration of 100 μg/mL . HUVECs were grown in Dulbecco’s Modified Eagle’s Medium supplemented with 10% FBS, 2 mM glutamine (Sigma Aldrich), 100 units/mL penicillin and […] streptomycin (Life Technologies; Paisley, UK).
(§4) S3.2.5. Cell cycle assay.
(§5) HCT-116 and LoVo cultures upon treatment with compound 3d. HCT-116 and LoVo carcinoma […]
(§6) μg/mL for 48 h. […] Then, cells […]
were fixed by mixing […] of 90% cold ethanol and stained with propidium iodide (PI) for 1 h at 37 °C. RNase A (10 mg/mL) was added in order to […] the ability of PI to bind only to DNA […]
(§7) S3.2.6. Annexin-V-FITC assay. […]
treatment with compound 3d. […]
(§8) of stained cancerous cells were determined. […]
carcinoma cells treated with compound 3d was assessed using the TMRE Mitochondrial Membrane
(In general: An ELISA detects its analyte on a solid surface through an enzyme-linked reagent.)

Assay [3] has as its system LoVo cells. Nature of the assay: Mitochondrial membrane potential (TMRE staining), LoVo. The format is cell-based, human. The following applies: 30 µg/mL, 48 h. As to the method: To assess mitochondrial integrity, TMRE staining was used to measure ΔΨm.
The mitochondrial transmembrane potential was measured using a tetramethylrhodamine, ethyl ester (TMRE) mitochondrial membrane potential assay kit. […]
as §1, §2, §3, §4, §5, §6
were fixed by mixing […] of 90% cold ethanol and stained with propidium iodide (PI) for 1 h at 37 °C. […]
as §8
carcinoma cells treated with compound 3d was assessed using the TMRE Mitochondrial Membrane […]
for TMRE staining. TMRE was excited using a 488 nm laser and detected in the FL2 channel at 575 […]
S3.2.9. Quantification of the Expression Levels of Bax, Bcl-2 and Caspase-3 Genes […]

Assay [4] deals with LoVo cells. Nature of the assay: Annexin V-FITC/PI apoptosis assay, LoVo. To be noted: 30 µg/mL, 48 h, Figure 3B plot. The format is cell-based, human. As to the method:
Translocation of phosphatidylserine (PS) residues on the cell surface is an early apoptosis indicator, detectable through flow cytometric analysis and using double staining with propidium iodide (PI) dye and fluorescein isothiocyanate (FITC)-conjugated Annexin V (Annexin V-FITC). […]
μg/mL for 48 h. […]
as §7
treatment with compound 3d. HCT-116 and LoVo cells were treated with vehicle (DMSO) and 3d […]
in Annexin-V binding buffer (BioVision Research Products, USA). The cells were then stained with Annexin V-FITC and propidium iodide (PI). Using the FITC signal detector (usually FL1) for […]
as §8

Several values for one entry are separate records, joined by “and”; a condition that tells them apart may be missing. Equal entries are not always repeated.

Here are results for one compound from publication PMC12196476, “New Nitrogen-, Oxygen-, and Sulfur-Containing Heterocyclic Compounds as Anti-Colon Cancer Agents: Synthesis, Multitargeted Evaluations, Molecular Docking Simulations and ADMET Predictions” (Pharmaceuticals, 2025).

By IC50 is commonly meant the concentration needed to halve the response being measured.

Take `COc1cc(/C=N/c2ncnc3sc4c(c23)CCCC4)cc(OC)c1OC` [Compound 3d, (E)-N-(5,6,7,8-Tetrahydrobenzo[4,5]thieno[2,3-d]pyrimidin-4-yl)-1-(3,4,5-trimethoxyphenyl)methanimine]: the viability at 100 µg/mL in assay [1] (read-out: Mean % of viable cells ± SD, HCT-116, 100 µg/mL, 48 h, LDH release assay) is less than 29%. The IC50 in assay [1] (read-out: Mean IC50 Values in µM ± SD, HCT-116 cells) was determined as 161 µM. For the same compound, the “ROS, Fold of control, LoVo” value in assay [2] was determined as 2.6. Further, in assay [2] (control 168.6 ± 6.5, two independent experiments), the “[ROS] pg/mL ± SD, LoVo” value was 434.5 ± 20.3 pg/mL and 434.5 pg/mL. The “Reduction of mitochondrial membrane potential (ΔΨm), LoVo cells” value in assay [3] was determined as 60.23 ± 1.87%. The “Necrotic population (Annexin-V−/PI+), LoVo” value in assay [4] was found to be 4.14%. Besides, the “Late apoptotic cells (both Annexin-V and PI positive), LoVo” value in assay [4] (control 0.09%) is given as 9.92%. Besides, the “Early apoptotic cells (Annexin V-FITC positive and PI negative), LoVo” value in assay [4] (control 0.44%) was 17.12%.
